Entries after “also recorded” stand apart in the source; their conditions may differ. Where a SMILES comes first, the peptide text is derived from it.
Key:
Assay type in all cases: physicochemical
[1] = Solubility in DMSO / organic solvents, determined visually; conditions: room temperature, concentration of 10 mg/mL (ca. 10 mg/mL for NMR)
Source text: We considered building blocks 1–3 as Fmoc‐protected pseudo‐ring building blocks that could be implemented into the Fmoc SPPS approach. The building block 1 was readily prepared from 3‐methyl SA (see Supporting Information). […] The building block 3 was made from commercially available 7‐carboxyindole over seven steps. This procedure was scalable and required no chromatographic purifications (see Supporting Information). With 1 and 3 in hand, we turned our attention towards their application in SPPS. […] Through cyclization of the linear pentafluorophenol (PFP) ester at high dilution in DMF with DIPEA, cyclic peptides 4 (25% overall yield) and 5 (28% overall yield) were obtained from building block 1. The cyclic peptides 6 (17% overall yield) and 7 (21% overall yield) were prepared from building block 3 (Figure 3a,b). At the same time, we synthesized cyclic peptide controls devoid of the pseudo‐ring core through a conventional Fmoc SPPS strategy (Figure 3c) with a Gly‐Gly in place of the pseudo‐ring scaffold. Similarly, we prepared peptides 10 and 11, which represent depeptidized homodetic sequences that contain a backbone‐embedded arene that lacks the X─H pseudo‐ring hydrogen bond donor (Figure 3c). To draw further comparison between pseudo‐ring‐containing and regular heterocycle‐containing peptides, we attempted to synthesize the indole‐containing analogues of peptides 6 and 7 (see Supporting Information). […] During the preparation of cyclic peptides 4–11, we noticed that macrocycles devoid of a pseudo‐ring were frustratingly insoluble in all organic solvents as well as in water. As result, these peptides (8–11) were purified by hot trituration in methanol/water. The solubilities/lipophilicities of peptides 4–11 will be discussed later in this paper. […]
Reversed‐phase HPLC retention times have proven to be a useful metric in determining the permeability of peptide macrocycles, as longer retention times typically equate to lower aqueous solubility, lower polarity, and increased lipophilicity.^[ [34], [35], [36], [37] ^] We were keen to use these HPLC retention times as a tool to assess the modulation of lipophilicity of the pseudo‐ring‐containing macrocycles. At the same time, we were interested in collecting solubility measurements for each macrocycle in both organic solvents (DMSO) as well as in water by visually determining each macrocycle's solubility. Our analysis began with the proteinogenic peptides 8 and 9 (Figure 6a). From the NMR studies, we recognized that these peptides had extremely poor solubility in d6 ‐DMSO (Figure 6c). […] HPLC analysis of these peptides confirmed that proteinogenic sequences correspond to extremely polar peptides. On a 15‐min HPLC gradient (from 5% MeCN/H2O to 95% MeCN/H2O with 0.1% formic acid), macrocycles 8 and 9 had HPLC retention times of 5.3 min and 4.8 min, respectively. Both 8 and 9 contain similar hydrogen bonding patterns, which is reflected in their similar hydrophilicities and HPLC retention times. Similar results were obtained with peptides 10 and 11 (Figure 6a). […] We were keen to decipher whether the inclusion of either “open” or “closed” pseudo‐ring residues could lead to noticeable solubility and lipophilicity differences. […] This increase in […] likely results from the now exposed polar phenolic OH group paired with the disrupted IMHB networks that were present within the backbone of 4. […] With this in mind, we began analyzing our dicarbonyl‐containing macrocycles 6 and 7. […] Similarly, this marks the first instance in which we have been able to access a class of macrocycles with chameleonic behavior whereby we can reliably access both “open” and “closed” forms using pseudo‐rings. […] Unique to this series of macrocycles, the “open” pseudo‐ring macrocycle 7 is extremely hydrophilic.

[2] = Reversed-phase HPLC retention time as measure of lipophilicity; conditions: 15-min gradient from 5% MeCN/H2O to 95% MeCN/H2O with 0.1% formic acid, longer time = more lipophilic
Source text: Reversed‐phase HPLC retention times have proven to be a useful metric in determining the permeability of peptide macrocycles, as longer retention times typically equate to lower aqueous solubility, lower polarity, and increased lipophilicity.^[ [34], [35], [36], [37] ^] We were keen to use these HPLC retention times as a tool to assess the modulation of lipophilicity of the pseudo‐ring‐containing macrocycles. At the same time, we were interested in collecting solubility measurements for each macrocycle in both organic solvents (DMSO) as well as in water by visually determining each macrocycle's solubility. Our analysis began with the proteinogenic peptides 8 and 9 (Figure 6a). From the NMR studies, we recognized that these peptides had extremely poor solubility in d6 ‐DMSO (Figure 6c). […] HPLC analysis of these peptides confirmed that proteinogenic sequences correspond to extremely polar peptides. On a 15‐min HPLC gradient (from 5% MeCN/H2O to 95% MeCN/H2O with 0.1% formic acid), macrocycles 8 and 9 had HPLC retention times of 5.3 min and 4.8 min, respectively. Both 8 and 9 contain similar hydrogen bonding patterns, which is reflected in their similar hydrophilicities and HPLC retention times. Similar results were obtained with peptides 10 and 11 (Figure 6a). […]

[3] = Solubility in water, determined visually; conditions: concentration of 10 mg/mL
Source text: We considered building blocks 1–3 as Fmoc‐protected pseudo‐ring building blocks that could be implemented into the Fmoc SPPS approach. The building block 1 was readily prepared from 3‐methyl SA (see Supporting Information). […] The building block 3 was made from commercially available 7‐carboxyindole over seven steps. This procedure was scalable and required no chromatographic purifications (see Supporting Information). With 1 and 3 in hand, we turned our attention towards their application in SPPS. […] Through cyclization of the linear pentafluorophenol (PFP) ester at high dilution in DMF with DIPEA, cyclic peptides 4 (25% overall yield) and 5 (28% overall yield) were obtained from building block 1. The cyclic peptides 6 (17% overall yield) and 7 (21% overall yield) were prepared from building block 3 (Figure 3a,b). At the same time, we synthesized cyclic peptide controls devoid of the pseudo‐ring core through a conventional Fmoc SPPS strategy (Figure 3c) with a Gly‐Gly in place of the pseudo‐ring scaffold. Similarly, we prepared peptides 10 and 11, which represent depeptidized homodetic sequences that contain a backbone‐embedded arene that lacks the X─H pseudo‐ring hydrogen bond donor (Figure 3c). […]

| Solubility in DMSO (d6-DMSO) [1] | HPLC retention time [2] | Solubility in H2O [3] | Structure (SMILES) |
| --- | --- | --- | --- |
| could not be fully solubilized | 5.3 min |  | CC[C@H](C)[C@@H]1NC(=O)CNC(=O)CNC(=O)[C@H](Cc2ccccc2)NC(=O)CNC(=O)[C@H](C)NC1=O [compound 8] (HELM PEPTIDE1{A.G.F.G.G.I}$PEPTIDE1,PEPTIDE1,1:R1-6:R2$$$V2.0) |
| could not be fully solubilized |  |  | C[C@@H]1NC(=O)[C@@H]2CCCN2C(=O)CNC(=O)CNC(=O)[C@H](Cc2ccccc2)NC(=O)CNC1=O [compound 9] (HELM PEPTIDE1{A.G.F.G.G.P}$PEPTIDE1,PEPTIDE1,1:R1-6:R2$$$V2.0) |
| highly soluble |  | highly soluble | C[C@@H]1NC(=O)[C@@H]2CCCN2C(=O)c2cccc(c2N)C(=O)CNC(=O)[C@H](Cc2ccccc2)NC(=O)CNC1=O [compound 7] (HELM PEPTIDE1{A.G.F.[Nc1c(C(=O)CN[*:1])cccc1C(=O)[*:2]].P}$PEPTIDE1,PEPTIDE1,1:R1-5:R2$$$V2.0) |
| poorly soluble |  |  | CC[C@H](C)[C@@H]1NC(=O)c2cccc(c2)CNC(=O)[C@H](Cc2ccccc2)NC(=O)CNC(=O)[C@H](C)NC1=O [compound 10] (HELM PEPTIDE1{[O=C(c1cccc(CN[*:1])c1)[*:2]].I.A.G.F}$PEPTIDE1,PEPTIDE1,1:R1-5:R2$$$V2.0) |
| highly soluble |  |  | CC[C@H](C)[C@@H]1NC(=O)c2cccc(c2N)C(=O)CNC(=O)[C@H](Cc2ccccc2)NC(=O)CNC(=O)[C@H](C)NC1=O [compound 6] (HELM PEPTIDE1{A.G.F.[Nc1c(C(=O)CN[*:1])cccc1C(=O)[*:2]].I}$PEPTIDE1,PEPTIDE1,1:R1-5:R2$$$V2.0) |

| Structure (SMILES) | Solubility in DMSO (d6-DMSO) [1] | HPLC retention time [2] | Solubility in H2O [3] |
| --- | --- | --- | --- |
| C[C@@H]1NC(=O)[C@@H]2CCCN2C(=O)c2cccc(c2)CNC(=O)[C@H](Cc2ccccc2)NC(=O)CNC1=O [compound 11] (HELM PEPTIDE1{[O=C(c1cccc(CN[*:1])c1)[*:2]].P.A.G.F}$PEPTIDE1,PEPTIDE1,1:R1-5:R2$$$V2.0) | could be solubilized in d6 ‐DMSO at room temperature only after sonication |  |  |
| CC[C@H](C)[C@@H]1NC(=O)c2cccc(c2O)CNC(=O)[C@H](Cc2ccccc2)NC(=O)CNC(=O)[C@H](C)NC1=O [compound 4] (HELM PEPTIDE1{A.G.F.[O=C(c1cccc(CN[*:1])c1O)[*:2]].I}$PEPTIDE1,PEPTIDE1,1:R1-5:R2$$$V2.0) | readily soluble; also recorded: much more soluble in DMSO than their non‐pseudo‐ring counterparts | 7.7 min |  |
| C[C@@H]1NC(=O)[C@@H]2CCCN2C(=O)c2cccc(c2O)CNC(=O)[C@H](Cc2ccccc2)NC(=O)CNC1=O [compound 5] (HELM PEPTIDE1{A.G.F.[O=C(c1cccc(CN[*:1])c1O)[*:2]].P}$PEPTIDE1,PEPTIDE1,1:R1-5:R2$$$V2.0) | readily soluble; also recorded: much more soluble in DMSO than their non‐pseudo‐ring counterparts |  |  |
